In ChEMBL document CHEMBL3414454, “Designing and exploring active N'-[(5-nitrofuran-2-yl) methylene] substituted hydrazides against three Trypanosoma cruzi strains more prevalent in Chagas disease patients” (Eur J Med Chem, 2015):
pIC50: −log10 of the molar value.

Legend:
[1] = test system: Trypanosoma cruzi; experiment: Anti-trypanosomal activity against Trypanosoma cruzi Silvio X10 cl1 epimastigote forms assessed as inhibition of parasite growth after 72 hrs by microplate reader based assay; type: functional, organism-based; details: for pIC50: Trypanosoma cruzi, Silvio X10 cl1, 72 h
[2] = Selectivity index, ratio of IC50 for human LL24 cells to IC50 for Trypanosoma cruzi Bug 2149 cl10; type: toxicity, cell-based; details: read-out: Ratio IC50
[3] = Cytotoxicity against human LL24 cells assessed as inhibition of cell growth after 24 hrs by MTT assay; type: cell-based; details: LL24, 24 h
[4] = Selectivity index, ratio of IC50 for human LL24 cells to IC50 for Trypanosoma cruzi Silvio X10 cl1 epimastigote forms; type: toxicity, cell-based; details: read-out: Ratio IC50
[5] = test system: Trypanosoma cruzi; experiment: Anti-trypanosomal activity against Trypanosoma cruzi Bug 2149 cl10 epimastigote forms assessed as inhibition of parasite growth after 72 hrs by microplate reader based assay; type: functional, organism-based; details: for pIC50: Trypanosoma cruzi, Bug 2149 cl10, CL1-0, 72 h
[6] = test system: Trypanosoma cruzi; experiment: Anti-trypanosomal activity against Trypanosoma cruzi Y epimastigote forms assessed as inhibition of parasite growth after 72 hrs by microplate reader based assay; type: functional, organism-based; details: for pIC50: Trypanosoma cruzi, Y, 72 h
[7] = Selectivity index, ratio of IC50 for human LL24 cells to IC50 for Trypanosoma cruzi Y epimastigote forms; type: toxicity, cell-based; details: read-out: Ratio IC50

| Structure (SMILES) | log1/IC50 [1] | pIC50 [1] | selectivity ratio [2] | pIC50 [3] | selectivity ratio [4] | log1/IC50 [5] | pIC50 [5] | log1/IC50 [6] | pIC50 [6] | selectivity ratio [7] |
| --- | --- | --- | --- | --- | --- | --- | --- | --- | --- | --- |
| O=C(N/N=C/c1ccc([N+](=O)[O-])o1)C1CCCCC1 | 4.86 | 4.86 | > 16 | < 3.70 | > 15 | 4.89 | 4.89 | 4.84 | 4.84 | > 14 |
| CCCCCC(=O)N/N=C/c1ccc([N+](=O)[O-])o1 | 5.01 | 5.01 | 8 | 4.00 | 10 | 4.91 | 4.91 | 4.99 | 4.99 | 10 |
| CCCCCCCC(=O)N/N=C/c1ccc([N+](=O)[O-])o1 | 4.83 | 4.83 | 6 | 4.04 | 6 | 4.84 | 4.84 | 4.87 | 4.87 | 7 |
| N#Cc1ccc(C(=O)N/N=C/c2ccc([N+](=O)[O-])o2)cc1 | 4.43 | 4.43 | > 8 | < 3.70 | > 5 | 4.6 | 4.60 | 4.64 | 4.64 | > 9 |
| CCCCc1ccc(C(=O)N/N=C/c2ccc([N+](=O)[O-])o2)cc1 | 5.32 | 5.32 | > 45 | < 3.70 | > 42 | 5.36 | 5.36 | 5.51 | 5.51 | > 64 |
| O=C(N/N=C/c1ccc([N+](=O)[O-])o1)C1CCCC1 | 4.7 | 4.70 | 4 | 4.24 | 3 | 4.84 | 4.84 | 4.93 | 4.93 | 5 |
| CC(C)(C)c1ccc(C(=O)N/N=C/c2ccc([N+](=O)[O-])o2)cc1 | 4.86 | 4.86 | > 15 | < 3.70 | > 15 | 4.86 | 4.86 | 5.03 | 5.03 | > 21 |
| CCCc1ccc(C(=O)N/N=C/c2ccc([N+](=O)[O-])o2)cc1 | 4.99 | 4.99 | 9 | 4.05 | 9 | 5.01 | 5.01 | 5.04 | 5.04 | 10 |
| CCCOc1ccc(C(=O)N/N=C/c2ccc([N+](=O)[O-])o2)cc1 | 4.89 | 4.89 | > 21 | < 3.70 | > 16 | 5.01 | 5.01 | 5.13 | 5.13 | > 27 |
| CCCCOc1ccc(C(=O)N/N=C/c2ccc([N+](=O)[O-])o2)cc1 | 5.29 | 5.29 | > 47 | < 3.70 | > 39 | 5.37 | 5.37 | 5.46 | 5.46 | > 58 |
| CC(C)(C)OC(=O)N/N=C/c1ccc([N+](=O)[O-])o1 | 4.86 | 4.86 | > 16 | < 3.70 | > 14 | 4.91 | 4.91 | 5.03 | 5.03 | > 21 |
| O=C(Cc1ccccc1)N/N=C/c1ccc([N+](=O)[O-])o1 | 4.69 | 4.69 | 7.91 | 4.01 | 4.79 | 4.91 | 4.91 | 4.96 | 4.96 | 8.83 |
| CC(C)c1ccc(C(=O)N/N=C/c2ccc([N+](=O)[O-])o2)cc1 | 5.22 | 5.22 | > 22 | < 3.70 | > 33 | 5.04 | 5.04 | 5.41 | 5.41 | > 51 |
| CCCCNc1ccc(C(=O)N/N=C/c2ccc([N+](=O)[O-])o2)cc1 | 5.36 | 5.36 | 11 | 4.33 | 11 | 5.37 | 5.37 | 5.51 | 5.47 | 14 |
| O=C(N/N=C/c1ccc([N+](=O)[O-])o1)c1ccc(-c2ccccc2)cc1 | 5.5 | 5.50 | > 110 | < 3.70 | > 63 | 5.74 | 5.74 | 5.93 | 5.93 | > 176 |
| O=C(N/N=C/c1ccc([N+](=O)[O-])o1)c1ccccc1Oc1ccccc1 | 4.91 | 4.91 | > 16 | < 3.70 | > 16 | 4.91 | 4.91 | 5.11 | 5.11 | > 26 |
| Cc1cccc(C(=O)N/N=C/c2ccc([N+](=O)[O-])o2)c1 | 4.56 | 4.56 | > 8 | < 3.70 | > 7 | 4.61 | 4.61 | 5 | 5.00 | > 20 |
| O=C(N/N=C/c1ccc([N+](=O)[O-])o1)c1ccccc1 | 4.51 | 4.51 | 12.5 | 3.75 | 5.72 | 4.85 | 4.85 | 4.9 | 4.90 | 14 |
| O=C(N/N=C/c1ccc([N+](=O)[O-])o1)c1ccc(Cl)cc1 | 4.7 | 4.70 | 12.9 | 3.73 | 9.36 | 4.84 | 4.84 | 5.04 | 5.04 | 20.4 |
| CN(C)c1ccc(C(=O)N/N=C/c2ccc([N+](=O)[O-])o2)cc1 | 4 | 4.00 | > 4 | < 3.70 | > 2 | 4.33 | 4.33 | 4 | 4.00 | > 2 |
| O=C(Cn1ccnc1[N+](=O)[O-])NCc1ccccc1 [BENZNIDAZOLE] |  |  |  | < 3.70 |  |  |  |  | 4.39 |  |
| O=C(N/N=C/c1ccc([N+](=O)[O-])o1)c1ccc(O)cc1 [NIFUROXAZIDE] |  |  | > 1 | < 3.70 |  | 3.52 | 3.52 | 3.52 | 3.52 | > 1 |
| CC1CS(=O)(=O)CCN1/N=C/c1ccc([N+](=O)[O-])o1 (stereo not drawn) [NIFURTIMOX] | 5.22 |  | > 27 | < 3.70 | > 33 | 5.14 | 5.14 | 4.89 | 4.89 | > 16 |
| CC(=O)N/N=C/c1ccc([N+](=O)[O-])o1 [NIHYDRAZONE] | 4.57 | 4.57 | > 13 | < 3.70 | > 7 | 4.8 | 4.80 | 4.86 | 4.86 | > 15 |
